Columns and labels:
[1] = solid-state form interconversion (variable temperature X-ray, drying); format: physicochemical; conditions: ambient conditions or drying
Source text: FIG. 5 is an overlay of variable temperature X-ray powder diffraction patterns showing the appearance of the non-isolatable anhydrous Form C of the 2:1 compound I:biphthalate salt.
FIG. 6 is an overlay of X-ray powder diffraction patterns comparing Form B, the dihydrate 2:1 compound I:biphthalate salt, with Form D, the tetrahydrate 2:1 compound I:biphthalate salt. When the wet cake of the 2:1 compound I:biphthalate salt, was air dried at room temperature, Form D was obtained at both T=5 days and T=8-days. The various methods of drying possible, in addition to the size of the sample to be dried, can vary the time needed for drying. The dryness was determined by a stable TG curve showing about a 6% weight loss. Here, the method was to dry in open air, and at both time points (T=5 and T=8 days), the weight loss by TGA was equal to about 6%.
In another embodiment of the invention, anhydrous 2:1 compound I:biphthalate material was non-isolatable at ambient condition, but the hygroscopicity study indicated the presence of one or more hydrated states from 15% to 95% RH. The weight percent of water was 3.4% at 15% RH with a gradual increase to 6.1% at 95%. […] Form D is suspected to be a tetrahydrate biphthalate salt based on its TG data in addition to the hygroscopicity data of Form B. Upon further drying (15 days), the TG and XRD data conform to that of Form B, the dihydrate 2:1 compound I:biphthalate salt.

[2] = hygroscopicity by symmetric vapor sorption analyzer; format: physicochemical; conditions: 25° C.
Experimental: A large quantity of Form A (wet cake of N-(3H-imidazo[4,5-B]pyridin-2-ylmethyl)-2-fluoro-4-methyl-3-oxo-4-aza-5-alpha-androst-1-en-17-beta-carboxamide) was generated by dissolving the crystalline free base (Form E) in pH 3—potassium biphthalate and sulfuric acid mixture—for 10 days at RT. The slurry was filtered and washed with copious amount of D.I. water to wash off residual ions. The wet cake (Form A) was analyzed by x-ray and was then vacuum dried at 37° C. for 3 days. Upon drying, a change in x-ray pattern was observed. The dry cake (Form B) was then analyzed by differential scanning calorimetry (DSC) and thermogravimetry (TG). The TG analysis was performed under a nitrogen flow at a heating rate of 10° C./min, and the DSC was performed under nitrogen flow at a heating rate of 10° C./min in a covered pan. The hygroscopicity of Form B was determined using a symmetric vapor sorption analyzer. The experiment includes an initial drying step at 60° C., followed by measurements of water sorption at 25° C. for percent RH values from 5% to 95% in 10% intervals. The data are reported as percent weight gain as a function of percent RH. Form B was also analyzed for weight percent by liquid chromatography (LCWP) by high performance liquid chromatography (HPLC).

SMILES	solid-state form stability / conversion [1]	weight percent of water ([2]; at 15% RH)	weight percent of water ([2]; at 95% RH)
CN1C(=O)C(F)=C[C@]2(C)C3CC[C@]4(C)[C@@H](C(=O)NCc5nc6cccnc6[nH]5)CC[C@H]4C3CC[C@@H]12 (some centres unmarked) [Form B]	the most stable form	3.4%	6.1%
CN1C(=O)C(F)=C[C@]2(C)C3CC[C@]4(C)[C@@H](C(=O)NCc5nc6cccnc6[nH]5)CC[C@H]4C3CC[C@@H]12 (some centres unmarked) [Form D]	converts to Form B upon further drying		
CN1C(=O)C(F)=C[C@]2(C)C3CC[C@]4(C)[C@@H](C(=O)NCc5nc6cccnc6[nH]5)CC[C@H]4C3CC[C@@H]12 (some centres unmarked) [Form C]	readily hydrates to Form B in ambient conditions		
